Legend:
[1] = test system: sympathetic nerve density in the infarct; assay: Sympathetic reinnervation of the infarct after myocardial ischemia-reperfusion (TH+ fiber density); assay type: in vivo, mouse; conditions: mice, s.c. daily days 3-10 after MI; HJ-01, HJ-02 10 mg/kg, ISP 10 μmol; day 14
[2] = test system: panel of other protein phosphatases; assay: Screen against a panel of other protein phosphatases; assay type: biochemical
[3] = test system: PTPσ inhibition of TrkB signaling (ERK1/2 phosphorylation); assay: TrkB stimulated ERK phosphorylation in TrkB-HEK-293t cells co-expressing full-length PTPσ; conditions: BDNF-induced
ISO-stimulated PVCs = assay: Isoproterenol-induced arrhythmias after MI, ECG telemetry; assay type: in vivo, mouse; conditions: MI mice, s.c. daily days 3-10; HJ-01, HJ-02 10 mg/kg, ISP 10 μmol; 10 μg isoproterenol, 14 days after MI
sympathetic neurons = assay: Sympathetic outgrowth assay: dissociated sympathetic neurons on laminin or laminin and CSPGs, live cell imaging; conditions: 10 ng/mL NGF, imaging over 30 hr
sympathetic axons = assay: Compartmentalized cultures: microfluidic chambers, axonal compartment coated with CSPGs; conditions: added to the axonal (distal) compartment for 3 hours
cardiac vasculature = assay: Vascular immunohistochemistry (α-SMA, CD31) after MI; assay type: in vivo, mouse; conditions: 14 days after MI; infarct, peri-infarct, remote myocardium
[4] = target: T1, PTPσ D1D2 catalytic domain (Homo sapiens, UniProt Q13332); conditions: for D1 phosphatase activity (pNPP): 1 μM HJ-02, orthovanadate 10 mM
T1 sequence (Q13332 1304-1948 limits assumed): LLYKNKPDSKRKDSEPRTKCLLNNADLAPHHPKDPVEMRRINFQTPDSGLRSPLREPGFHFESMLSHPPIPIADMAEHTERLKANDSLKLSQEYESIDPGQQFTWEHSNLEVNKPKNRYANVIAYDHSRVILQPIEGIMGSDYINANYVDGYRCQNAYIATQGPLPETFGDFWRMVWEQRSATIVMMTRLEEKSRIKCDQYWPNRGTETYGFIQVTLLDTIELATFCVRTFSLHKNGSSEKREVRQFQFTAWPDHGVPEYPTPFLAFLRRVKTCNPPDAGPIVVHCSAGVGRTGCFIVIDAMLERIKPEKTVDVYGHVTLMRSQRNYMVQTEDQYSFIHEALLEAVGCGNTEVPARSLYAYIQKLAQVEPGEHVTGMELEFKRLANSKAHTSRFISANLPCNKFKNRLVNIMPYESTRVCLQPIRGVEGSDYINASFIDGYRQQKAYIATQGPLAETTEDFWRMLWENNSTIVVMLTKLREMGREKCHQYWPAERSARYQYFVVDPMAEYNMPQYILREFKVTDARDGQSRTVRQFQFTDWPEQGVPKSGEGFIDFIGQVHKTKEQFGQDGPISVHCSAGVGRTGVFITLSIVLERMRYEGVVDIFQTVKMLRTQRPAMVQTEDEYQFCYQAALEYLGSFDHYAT

[5] = test system: cardiac output and ejection fraction; assay: Echocardiography of cardiac function after MI; assay type: in vivo, mouse; conditions: MI mice, response to isoproterenol
infarct size = assay: Infarct size after myocardial ischemia-reperfusion; assay type: in vivo, mouse; conditions: MI mice, treatment beginning three days after reperfusion (days 3-10); infarct as percentage of LV
TrkA-PTPσ interaction = TrkA-PTPσ interaction (Homo sapiens, UniProt Q13332); assay: Immunoprecipitation assay: TrkA-RFP pulldown of PTPσ in transfected HEK-293t cells; conditions: 1 uM; HEK-293 cells treated with CSPGs and NGF; normalized to vehicle
TrkA-PTPσ interaction, sequence (Q13332 30-1948): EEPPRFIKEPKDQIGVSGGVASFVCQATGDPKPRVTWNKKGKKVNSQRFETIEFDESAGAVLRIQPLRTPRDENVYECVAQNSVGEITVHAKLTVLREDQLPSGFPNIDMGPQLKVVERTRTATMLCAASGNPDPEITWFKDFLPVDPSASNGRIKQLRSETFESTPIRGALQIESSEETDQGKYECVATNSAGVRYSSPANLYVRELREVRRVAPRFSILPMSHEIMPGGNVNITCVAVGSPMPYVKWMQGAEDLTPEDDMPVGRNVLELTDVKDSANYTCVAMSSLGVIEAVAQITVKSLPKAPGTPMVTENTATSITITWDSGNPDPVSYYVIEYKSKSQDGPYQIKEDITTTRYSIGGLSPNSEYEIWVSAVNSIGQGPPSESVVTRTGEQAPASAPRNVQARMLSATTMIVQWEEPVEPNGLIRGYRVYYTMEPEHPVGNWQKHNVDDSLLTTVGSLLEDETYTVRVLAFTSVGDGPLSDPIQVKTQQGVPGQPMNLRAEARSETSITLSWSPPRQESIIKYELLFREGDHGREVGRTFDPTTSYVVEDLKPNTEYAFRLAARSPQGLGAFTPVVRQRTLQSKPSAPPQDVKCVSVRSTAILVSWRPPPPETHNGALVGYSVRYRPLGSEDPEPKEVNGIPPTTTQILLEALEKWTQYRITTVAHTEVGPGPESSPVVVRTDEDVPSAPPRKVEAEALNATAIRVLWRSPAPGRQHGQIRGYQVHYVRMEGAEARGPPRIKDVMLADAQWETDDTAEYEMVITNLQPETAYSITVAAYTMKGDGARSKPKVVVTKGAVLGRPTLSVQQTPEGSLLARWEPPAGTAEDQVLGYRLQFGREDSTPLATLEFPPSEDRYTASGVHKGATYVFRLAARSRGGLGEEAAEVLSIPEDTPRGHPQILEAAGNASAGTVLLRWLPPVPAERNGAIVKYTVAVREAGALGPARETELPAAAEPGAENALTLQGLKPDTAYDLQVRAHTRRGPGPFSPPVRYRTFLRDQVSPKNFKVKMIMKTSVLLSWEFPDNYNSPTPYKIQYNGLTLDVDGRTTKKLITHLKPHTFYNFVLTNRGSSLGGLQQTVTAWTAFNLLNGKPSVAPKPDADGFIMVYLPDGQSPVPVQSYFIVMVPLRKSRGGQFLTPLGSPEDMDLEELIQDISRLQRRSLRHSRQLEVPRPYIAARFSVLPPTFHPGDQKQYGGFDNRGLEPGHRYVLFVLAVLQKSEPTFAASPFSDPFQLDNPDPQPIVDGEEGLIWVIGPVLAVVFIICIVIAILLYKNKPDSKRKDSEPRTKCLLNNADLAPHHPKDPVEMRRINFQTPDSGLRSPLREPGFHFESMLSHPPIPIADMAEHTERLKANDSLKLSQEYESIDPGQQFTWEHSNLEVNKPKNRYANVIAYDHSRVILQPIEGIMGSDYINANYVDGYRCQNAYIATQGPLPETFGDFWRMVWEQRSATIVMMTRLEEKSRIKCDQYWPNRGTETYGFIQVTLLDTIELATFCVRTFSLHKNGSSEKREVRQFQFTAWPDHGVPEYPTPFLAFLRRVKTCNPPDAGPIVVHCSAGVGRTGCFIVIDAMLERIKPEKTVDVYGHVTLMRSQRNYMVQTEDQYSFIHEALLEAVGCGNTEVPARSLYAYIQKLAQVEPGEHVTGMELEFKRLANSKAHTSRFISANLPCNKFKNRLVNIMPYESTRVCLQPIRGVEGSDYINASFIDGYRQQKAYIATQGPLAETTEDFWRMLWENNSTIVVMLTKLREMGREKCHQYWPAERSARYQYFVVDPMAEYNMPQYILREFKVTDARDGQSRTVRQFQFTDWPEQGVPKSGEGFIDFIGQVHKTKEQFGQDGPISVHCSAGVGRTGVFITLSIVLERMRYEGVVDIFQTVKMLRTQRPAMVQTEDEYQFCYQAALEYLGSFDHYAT

PTPα catalytic activity = conditions: read-out: IC50 against PTPα catalytic activity in vitro; cited from earlier work

Compound	nerve density within the infarct [1]	inhibition of other protein phosphatases in the screen [2]	concentration rescuing ERK1/2 phosphorylation [3] [nM]	ISO-stimulated arrhythmias (PVCs) (ISO-stimulated PVCs)	concentration fully restoring sympathetic axon outgrowth over CSPGs (sympathetic neurons) [nM]	defasiculation of axon bundles growing over CSPGs (sympathetic axons)	rate of axon outgrowth over CSPGs (sympathetic axons)	density of vasculature (α-SMA, CD31) (cardiac vasculature)	beta adrenergic receptor supersensitivity [5]	infarct size (infarct size)	D1 phosphatase activity (pNPP) [4]	other results
C=CC(=O)Nc1cc(OC)c(OCC2CCCCC2)cc1C(=O)O [HJ-01, 2-acrylamido-5-(cyclohexylmethoxy)-4-methoxybenzoic Acid]	restored nerve density within the infarct to the density in sham and uninjured peri-infarct myocardium	neither HJ-01 nor HJ-02 inhibited any of the protein phosphatases	100	had arrhythmias similar to sham mice	100	stimulated the defasiculation of axon bundles	enhanced the rate of axon outgrowth	no difference in the density of vasculature between any treatment groups	prevented beta adrenergic receptor supersensitivity	significantly smaller infarcts compared to vehicle hearts	–	catalytic activity of recombinant PTPσ ([4]; concluding statement, no concentration printed for HJ-01): do not inhibit the catalytic activity of recombinant PTPσ
C=CC(=O)Nc1cc(OC)c(OCCCCCC)cc1C(=O)O [HJ-02, 2-acrylamido-5-(hexyloxy)-4-methoxybenzoic Acid]	restored nerve density within the infarct to the density in sham and uninjured peri-infarct myocardium	neither HJ-01 nor HJ-02 inhibited any of the protein phosphatases	10	had arrhythmias similar to sham mice	30	stimulated the defasiculation of axon bundles	enhanced the rate of axon outgrowth	no difference in the density of vasculature between any treatment groups	prevented beta adrenergic receptor supersensitivity	significantly smaller infarcts compared to vehicle hearts	did not inhibit D1 phosphatase activity	–
CCC(=O)Nc1cc(OC)c(OCC2CCCCC2)cc1C(=O)O [HJ-03, 5-(cyclohexylmethoxy)-4-methoxy-2-propionamidobenzoic Acid]	–	–	–	–	–	–	–	–	–	–	–	amount of PTPRS co-immunoprecipitated with TrkA-RFP (TrkA-PTPσ interaction): had no effect
CC1(C)Cc2c(O)c(C=O)c3c(c2C1)C(=O)OC(O)C3 (stereo not drawn) [Illudalic acid]	–	–	–	–	–	–	–	–	–	–	–	IC50 (PTPα catalytic activity): ~1000 nM
[Na+].[Na+].[Na+].[O]=[V]([O-])([O-])[O-] [orthovanadate, sodium-orthovanadate, reference compound]	–	–	–	–	–	–	–	–	–	–	negligible phosphatase activity	–
chondroitinase ABC [reference compound]	–	–	–	–	–	stimulated the defasiculation of axon bundles	enhanced the rate of axon outgrowth	–	–	–	–	–
